In test [1] the target is Dual specificity protein kinase CLK4 (Homo sapiens, UniProt Q9HAZ1). It is filed as functional.
Test [2] addresses Mitogen-activated protein kinase kinase kinase kinase 2 (Homo sapiens, UniProt Q12851). The test is classed as functional.
For test [3], the target named is Peroxisome proliferator-activated receptor gamma/Nuclear receptor coactivator 1 (Homo sapiens, UniProt P37231). Put plainly: TR-FRET dose response biochemical High Throughput Screening assay for agonists of the steroid receptor coactivator 1 (SRC-1) recruitment by the peroxisome proliferator-activated receptor gamma (PPAR gamma): non-selective agonists. [Related pubchem assays (depositor defined):AID1300, AID1808, AID504735, AID631]. The test is classed as protein assay. (TR-FRET usually uses a lanthanide donor and a delayed reading to cut background.)

Test [4] has as its target Botulinum neurotoxin type F (Clostridium botulinum, UniProt P30996). Put plainly: High-throughput multiplex microsphere dose response for inhibitors of toxin protease, specifically Botulinum neurotoxin light chain F protease, compounds from Cherry Pick 02. The test is classed as functional. The following applies: read-out: EC50_MICROM.
Test [5] addresses Botulinum neurotoxin type A (Clostridium botulinum (strain Hall / ATCC 3502 / NCTC 13319 / Type A), UniProt P0DPI1). Kind of test: High-throughput multiplex microsphere dose response for inhibitors of toxin protease, specifically Botulinum neurotoxin light chain A protease, compounds from Cherry Pick 02. It is filed as functional. The following applies: read-out: EC50_MICROM.
For test [6], the target named is Peroxisome proliferator-activated receptor gamma/Nuclear receptor coactivator 3 (Homo sapiens, UniProt P37231). Kind of test: TR-FRET dose response biochemical High Throughput Screening assay for agonists of the steroid receptor coactivator 3 (SRC-3) recruitment by the peroxisome proliferator-activated receptor gamma (PPAR gamma): non-selective agonists. [Related pubchem assays: 1301 (Confirmation screen.), 1048 (Primary screen.)]. The test is classed as functional.

For test [7], the target named is Protein S100-A4 (Homo sapiens, UniProt P26447). Kind of test: S100A4-myosin IIA binding inhibitor potency, dose response, biochemical, fluorescence polarization, cherry-picked hits (AID 687001). It is filed as functional. (In general: In fluorescence polarisation assays a small probe gives low polarisation when free and higher when bound to something large.)
Sequence of Protein S100-A4 (P26447 whole entry): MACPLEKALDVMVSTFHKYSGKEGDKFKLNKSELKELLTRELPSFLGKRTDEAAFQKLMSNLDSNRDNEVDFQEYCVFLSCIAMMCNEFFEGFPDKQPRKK
Test [8] has as its target Peroxisome proliferator-activated receptor gamma/Nuclear receptor coactivator 2 (Homo sapiens, UniProt P37231). Kind of test: TR-FRET dose response biochemical High Throughput Screening assay for agonists of the steroid receptor coactivator 2 (SRC-2) recruitment by the peroxisome proliferator-activated receptor gamma (PPAR gamma): non-selective agonists. [Related pubchem assays: 1297, 1032 ]. The test is classed as functional.

Test [9] has as its target Neuropeptides B/W receptor type 1 (Homo sapiens, UniProt P48145). Put plainly: GPR7 antagonist potency, late-stage follow-up, cell-based, fluorescence, dose response, set 5 (AID 588566). The test is classed as functional.
The target in test [10] is Melanin-concentrating hormone receptor 1 (Homo sapiens, UniProt Q99705). Kind of test: Late-stage fluorescence-based counterscreen for antagonists of the G-protein coupled receptor 7 (GPR7): cell-based dose response assay to identify antagonists of the melanin-concentrating hormone receptor 1 (MCHR1) Set 5. The test is classed as functional. (A counterscreen serves to expose hits that act by an unwanted route or on another target.)

Test [11] deals with Vascular endothelial growth factor receptor 2 (Homo sapiens, UniProt P35968). The test is classed as functional.
Sequence of Vascular endothelial growth factor receptor 2 (P35968 whole entry): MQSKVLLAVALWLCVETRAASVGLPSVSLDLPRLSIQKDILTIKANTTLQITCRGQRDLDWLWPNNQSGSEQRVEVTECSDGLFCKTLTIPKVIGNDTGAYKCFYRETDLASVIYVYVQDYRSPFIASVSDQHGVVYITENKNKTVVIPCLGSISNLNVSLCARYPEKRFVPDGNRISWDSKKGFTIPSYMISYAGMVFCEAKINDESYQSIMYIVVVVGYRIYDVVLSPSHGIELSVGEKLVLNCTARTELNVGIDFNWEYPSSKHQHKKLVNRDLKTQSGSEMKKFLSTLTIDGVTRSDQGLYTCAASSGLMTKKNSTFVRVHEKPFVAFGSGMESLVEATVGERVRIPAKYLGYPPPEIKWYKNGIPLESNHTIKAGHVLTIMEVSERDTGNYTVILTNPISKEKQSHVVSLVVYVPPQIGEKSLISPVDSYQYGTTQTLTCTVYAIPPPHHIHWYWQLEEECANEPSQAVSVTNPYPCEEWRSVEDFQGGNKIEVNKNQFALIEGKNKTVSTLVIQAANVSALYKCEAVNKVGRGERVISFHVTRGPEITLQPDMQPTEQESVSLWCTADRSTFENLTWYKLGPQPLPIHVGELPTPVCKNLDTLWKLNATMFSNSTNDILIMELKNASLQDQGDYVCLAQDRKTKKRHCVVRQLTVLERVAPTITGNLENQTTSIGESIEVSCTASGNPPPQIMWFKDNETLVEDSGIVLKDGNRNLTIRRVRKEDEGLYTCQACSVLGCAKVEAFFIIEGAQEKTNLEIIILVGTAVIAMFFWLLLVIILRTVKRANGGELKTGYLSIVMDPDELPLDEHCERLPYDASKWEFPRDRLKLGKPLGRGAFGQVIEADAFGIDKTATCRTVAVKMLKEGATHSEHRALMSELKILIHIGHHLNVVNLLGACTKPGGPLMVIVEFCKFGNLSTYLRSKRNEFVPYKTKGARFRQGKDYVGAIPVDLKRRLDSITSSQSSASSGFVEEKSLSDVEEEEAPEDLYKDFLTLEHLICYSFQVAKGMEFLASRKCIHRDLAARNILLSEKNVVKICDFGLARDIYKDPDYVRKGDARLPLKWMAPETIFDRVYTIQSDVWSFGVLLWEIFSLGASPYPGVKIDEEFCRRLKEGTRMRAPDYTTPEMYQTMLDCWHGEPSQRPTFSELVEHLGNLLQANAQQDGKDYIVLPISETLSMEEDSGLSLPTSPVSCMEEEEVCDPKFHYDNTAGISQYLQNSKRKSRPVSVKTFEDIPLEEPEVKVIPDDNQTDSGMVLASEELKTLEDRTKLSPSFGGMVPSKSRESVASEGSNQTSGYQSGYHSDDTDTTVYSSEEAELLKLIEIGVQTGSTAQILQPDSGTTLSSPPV
The target of test [12] is Tyrosine-protein kinase ABL1 (Homo sapiens, UniProt P00519). It is filed as functional.
The target of test [13] is Sphingosine 1-phosphate receptor 2 (Homo sapiens, UniProt O95136). Kind of test: Late-stage fluorescence-based dose-response cell-based counterscreen assay to identify agonists of the Sphingosine 1-Phosphate Receptor 3 (S1P3): Sphingosine 1-Phosphate Receptor 2 (S1P2) agonist assay. It is filed as functional.
Sequence of Sphingosine 1-phosphate receptor 2 (O95136 whole entry): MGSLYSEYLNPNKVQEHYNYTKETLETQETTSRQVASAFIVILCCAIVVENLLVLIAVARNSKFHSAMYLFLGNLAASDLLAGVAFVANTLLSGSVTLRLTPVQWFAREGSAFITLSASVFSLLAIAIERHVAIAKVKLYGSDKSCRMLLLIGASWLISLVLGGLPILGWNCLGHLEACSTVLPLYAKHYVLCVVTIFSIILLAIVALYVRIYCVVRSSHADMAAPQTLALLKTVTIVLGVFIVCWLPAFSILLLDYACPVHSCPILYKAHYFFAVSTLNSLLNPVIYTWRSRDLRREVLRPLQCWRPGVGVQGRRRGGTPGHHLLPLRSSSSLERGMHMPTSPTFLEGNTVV
For test [14], the target named is T1, Sphingosine 1-phosphate receptor 4 (Homo sapiens, UniProt O95977).
T1 sequence (O95977 whole entry): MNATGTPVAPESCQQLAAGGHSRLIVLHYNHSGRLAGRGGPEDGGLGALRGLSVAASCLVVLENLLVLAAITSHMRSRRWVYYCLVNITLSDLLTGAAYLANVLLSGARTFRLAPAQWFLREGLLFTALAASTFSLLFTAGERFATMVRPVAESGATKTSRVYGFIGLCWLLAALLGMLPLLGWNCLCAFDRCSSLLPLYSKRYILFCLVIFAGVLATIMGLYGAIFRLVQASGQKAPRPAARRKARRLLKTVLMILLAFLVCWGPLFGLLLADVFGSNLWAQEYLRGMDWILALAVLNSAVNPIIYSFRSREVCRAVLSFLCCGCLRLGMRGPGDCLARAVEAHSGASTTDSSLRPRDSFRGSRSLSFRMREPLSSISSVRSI
Put plainly: Late-stage fluorescence-based dose-response cell-based counterscreen assay to identify agonists of the Sphingosine 1-Phosphate Receptor 3 (S1P3): Sphingosine 1-Phosphate Receptor 4 (S1P4) agonist assay. The test is classed as functional.

Test [15] has as its target T2, DNA dC->dU-editing enzyme APOBEC-3G (Homo sapiens, UniProt Q9HC16). Kind of test: SAR analysis of small molecule inhibitors of APOBEC3G DNA Deaminase via a fluorescence-based single-stranded DNA deaminase assay - Set 2. It is filed as functional. The following applies: read-out: IC50_Mean.
Test [16] concerns the target T3, DNA dC->dU-editing enzyme APOBEC-3A (Homo sapiens, UniProt P31941). Put plainly: SAR analysis of small molecule inhibitors of APOBEC3A DNA Deaminase via a fluorescence-based single-stranded DNA deaminase assay. The test is classed as functional. As to conditions: read-out: IC50_Mean.
In test [17] the target is T2, DNA dC->dU-editing enzyme APOBEC-3G. Put plainly: APOBEC3G deaminase inhibitors, SAR follow-up, biochemical, fluorescence, single-stranded DNA substrate (AID 602136). The following applies: read-out: IC50_Mean. The test is classed as functional.
For test [18], the target named is T4, Mitochondrial peptide methionine sulfoxide reductase (Bos taurus, UniProt P54149).
T4 sequence (P54149 whole entry): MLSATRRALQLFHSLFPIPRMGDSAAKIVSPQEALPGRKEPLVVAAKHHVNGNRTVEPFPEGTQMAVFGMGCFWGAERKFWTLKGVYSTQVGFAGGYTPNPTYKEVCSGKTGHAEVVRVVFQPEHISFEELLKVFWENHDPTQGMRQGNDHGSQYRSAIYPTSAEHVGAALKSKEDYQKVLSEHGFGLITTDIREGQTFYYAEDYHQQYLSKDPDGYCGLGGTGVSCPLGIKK
Put plainly: Absorbance-based biochemical high throughput dose response assay for activators of Methionine sulfoxide reductase A (MsrA). The test is classed as functional.

The target in test [19] is T2, DNA dC->dU-editing enzyme APOBEC-3G. Kind of test: Dose Response confirmation of small molecule APOBEC3G DNA Deaminase Inhibitors via a fluorescence-based single-stranded DNA deaminase assay. [Related pubchem assays (depositor defined):AID493012, AID493028]. The test is classed as functional.
In test [20] the target is T3, DNA dC->dU-editing enzyme APOBEC-3A. Put plainly: APOBEC3A DNA deaminase inhibitors, dose response, biochemical (AID 504722). It is filed as functional.
Test [21] has the same target. Kind of test: SAR analysis of small molecule inhibitors of APOBEC3A DNA Deaminase via a fluorescence-based single-stranded DNA deaminase assay - Set 2. It is filed as functional. As to conditions: read-out: IC50_Mean.
Test [22] concerns the target Dual specificity tyrosine-phosphorylation-regulated kinase 3 (Homo sapiens, UniProt O43781). It is filed as functional.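 Also: measured as one member of a broad kinase panel.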
In test [23] the target is Eukaryotic elongation factor 2 kinase (Homo sapiens, UniProt O00418). It is filed as functional.
Test [24] concerns the target Dual specificity tyrosine-phosphorylation-regulated kinase 4 (Homo sapiens, UniProt Q9NR20). It is filed as functional.
Test [25] addresses MAP kinase-activated protein kinase 3 (Homo sapiens, UniProt Q16644). The test is classed as functional.
In test [26] the target is Lymphokine-activated killer T-cell-originated protein kinase (Homo sapiens, UniProt Q96KB5). It is filed as functional.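 Also: value comes from a kinase panel screen in which TOPK was one of the panel members.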
Sequence of Lymphokine-activated killer T-cell-originated protein kinase (Q96KB5 whole entry): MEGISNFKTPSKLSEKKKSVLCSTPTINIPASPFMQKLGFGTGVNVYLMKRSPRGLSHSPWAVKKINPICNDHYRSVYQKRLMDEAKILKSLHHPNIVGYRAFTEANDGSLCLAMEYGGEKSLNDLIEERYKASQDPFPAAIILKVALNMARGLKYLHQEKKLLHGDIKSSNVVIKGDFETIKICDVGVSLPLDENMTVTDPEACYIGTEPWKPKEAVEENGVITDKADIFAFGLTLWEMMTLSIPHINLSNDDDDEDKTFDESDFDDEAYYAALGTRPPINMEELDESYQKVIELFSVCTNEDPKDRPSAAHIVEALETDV
Test [27] concerns the target Testis-specific serine/threonine-protein kinase 2 (Homo sapiens, UniProt Q96PF2). It is filed as functional.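 Also: part of the Navigating the Kinome panel, target entry STK22B.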
For test [28], the target named is Protein kinase C gamma type (Homo sapiens, UniProt P05129). The test is classed as functional.
Test [29] deals with Cell division cycle 7-related protein kinase (Homo sapiens, UniProt O00311). The test is classed as functional.

Calls of active or inactive are those of the source.

T3 sequence (P31941 whole entry): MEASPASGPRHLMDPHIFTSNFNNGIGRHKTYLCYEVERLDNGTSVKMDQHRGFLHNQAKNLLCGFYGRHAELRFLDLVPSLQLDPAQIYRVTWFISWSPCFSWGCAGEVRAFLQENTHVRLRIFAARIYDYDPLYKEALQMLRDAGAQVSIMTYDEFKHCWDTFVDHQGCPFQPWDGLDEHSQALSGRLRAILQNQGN
T2 sequence (Q9HC16 whole entry): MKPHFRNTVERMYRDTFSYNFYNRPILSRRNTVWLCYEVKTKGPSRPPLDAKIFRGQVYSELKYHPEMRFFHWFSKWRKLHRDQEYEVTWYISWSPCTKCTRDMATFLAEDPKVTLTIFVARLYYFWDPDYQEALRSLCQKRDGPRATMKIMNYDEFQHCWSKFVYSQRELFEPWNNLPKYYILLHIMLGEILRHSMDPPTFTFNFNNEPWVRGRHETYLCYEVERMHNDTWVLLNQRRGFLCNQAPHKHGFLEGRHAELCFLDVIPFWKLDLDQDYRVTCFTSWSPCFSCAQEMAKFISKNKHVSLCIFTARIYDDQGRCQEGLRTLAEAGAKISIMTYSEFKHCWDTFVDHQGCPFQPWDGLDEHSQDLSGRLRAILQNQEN
Sequence of Dual specificity tyrosine-phosphorylation-regulated kinase 3 (O43781 whole entry): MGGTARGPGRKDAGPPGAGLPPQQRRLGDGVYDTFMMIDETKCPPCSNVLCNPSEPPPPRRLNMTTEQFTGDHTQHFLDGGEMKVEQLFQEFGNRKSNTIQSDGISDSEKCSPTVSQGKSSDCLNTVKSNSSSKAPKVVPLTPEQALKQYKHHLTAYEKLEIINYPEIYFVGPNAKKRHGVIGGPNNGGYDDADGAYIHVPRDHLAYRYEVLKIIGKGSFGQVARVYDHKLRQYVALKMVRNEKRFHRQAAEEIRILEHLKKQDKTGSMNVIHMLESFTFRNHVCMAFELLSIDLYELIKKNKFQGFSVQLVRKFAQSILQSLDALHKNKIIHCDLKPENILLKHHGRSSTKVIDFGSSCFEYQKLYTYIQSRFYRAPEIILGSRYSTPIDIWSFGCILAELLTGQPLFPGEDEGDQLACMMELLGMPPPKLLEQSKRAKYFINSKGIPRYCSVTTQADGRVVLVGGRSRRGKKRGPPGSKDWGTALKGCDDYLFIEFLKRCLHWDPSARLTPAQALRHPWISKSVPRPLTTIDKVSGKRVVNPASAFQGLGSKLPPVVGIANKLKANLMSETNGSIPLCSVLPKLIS
Sequence of Neuropeptides B/W receptor type 1 (P48145 whole entry): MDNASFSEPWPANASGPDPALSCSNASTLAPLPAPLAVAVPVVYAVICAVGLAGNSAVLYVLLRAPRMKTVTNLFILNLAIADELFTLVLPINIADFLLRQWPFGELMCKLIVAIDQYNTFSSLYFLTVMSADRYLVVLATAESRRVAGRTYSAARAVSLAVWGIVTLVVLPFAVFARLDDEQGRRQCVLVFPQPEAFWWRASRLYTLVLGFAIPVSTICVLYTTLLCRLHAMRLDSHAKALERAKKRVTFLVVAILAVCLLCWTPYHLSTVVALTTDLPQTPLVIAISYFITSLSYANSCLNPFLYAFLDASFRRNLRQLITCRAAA
Sequence of Botulinum neurotoxin type A (P0DPI1 2-448 limits assumed): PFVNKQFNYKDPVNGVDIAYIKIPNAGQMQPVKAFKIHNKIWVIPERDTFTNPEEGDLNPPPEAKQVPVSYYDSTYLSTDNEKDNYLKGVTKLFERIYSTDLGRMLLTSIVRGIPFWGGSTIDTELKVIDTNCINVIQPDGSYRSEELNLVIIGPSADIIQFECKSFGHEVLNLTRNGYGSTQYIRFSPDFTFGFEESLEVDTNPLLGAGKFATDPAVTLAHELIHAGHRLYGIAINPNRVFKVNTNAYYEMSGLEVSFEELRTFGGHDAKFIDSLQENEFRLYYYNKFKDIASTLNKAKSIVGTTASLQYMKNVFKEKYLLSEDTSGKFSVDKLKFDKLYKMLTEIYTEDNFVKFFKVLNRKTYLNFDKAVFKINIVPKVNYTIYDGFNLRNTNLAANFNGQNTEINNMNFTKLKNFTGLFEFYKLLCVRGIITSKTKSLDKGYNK
Sequence of MAP kinase-activated protein kinase 3 (Q16644 whole entry): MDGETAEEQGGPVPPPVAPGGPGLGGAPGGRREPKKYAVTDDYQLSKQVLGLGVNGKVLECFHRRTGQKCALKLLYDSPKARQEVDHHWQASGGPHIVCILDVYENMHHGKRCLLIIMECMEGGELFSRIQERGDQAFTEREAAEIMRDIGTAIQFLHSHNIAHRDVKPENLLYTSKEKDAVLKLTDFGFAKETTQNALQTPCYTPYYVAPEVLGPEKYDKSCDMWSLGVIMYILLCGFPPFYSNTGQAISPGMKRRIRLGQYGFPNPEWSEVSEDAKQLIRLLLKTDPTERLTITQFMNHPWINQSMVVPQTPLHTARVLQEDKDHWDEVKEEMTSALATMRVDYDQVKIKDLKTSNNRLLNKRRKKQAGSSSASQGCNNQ
Sequence of Dual specificity protein kinase CLK4 (Q9HAZ1 whole entry): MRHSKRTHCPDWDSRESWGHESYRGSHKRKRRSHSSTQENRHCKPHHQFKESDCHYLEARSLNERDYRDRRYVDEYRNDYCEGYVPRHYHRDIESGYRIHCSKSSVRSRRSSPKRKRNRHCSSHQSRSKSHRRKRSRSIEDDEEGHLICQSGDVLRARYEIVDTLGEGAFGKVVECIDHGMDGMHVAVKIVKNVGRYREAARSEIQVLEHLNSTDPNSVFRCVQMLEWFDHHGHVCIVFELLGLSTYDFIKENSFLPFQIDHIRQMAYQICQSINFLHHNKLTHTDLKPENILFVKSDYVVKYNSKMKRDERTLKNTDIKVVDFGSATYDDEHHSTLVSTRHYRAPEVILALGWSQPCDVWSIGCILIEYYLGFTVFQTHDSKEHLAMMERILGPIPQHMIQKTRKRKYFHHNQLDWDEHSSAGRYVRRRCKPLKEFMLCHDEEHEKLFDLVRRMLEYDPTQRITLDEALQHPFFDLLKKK

On to `O=C1CC(c2ccc(Cl)cc2Cl)Cc2[nH]c3ccc(Cl)cc3c(=O)c21` (centres undefined), for which the Ki in test [1] is 7.94 µM (active); in test [2], 5.01 µM (active).

Turning to `Cc1cc2ccccc2n1CCNC(=O)c1ccc(S(=O)(=O)N2CCCCC2)cc1`, the EC50 in test [3] was 5.91 µM (active); in [4], > 20 µM (inactive); in test [5], 1 µM (active); in [6], 13.6 µM (not active); in test [8], 6.53 µM (active). The concentration at half-maximal activity (AC50) in [7] was 6.69 µM (active).

In the case of `COc1ccc(Oc2c(Cl)cnn(Cc3ccccc3C#N)c2=O)cc1`, the values for the IC50 in [9] and in test [10] were 1.45 µM (active) and 11.4 µM (inactive), respectively.

In the case of `N#Cc1cnc2c(Br)cnn2c1N`, the Ki in test [11] is 100 µM (active); in test [12] it was 79.4 µM (active).

Regarding `COc1ccc(-c2cc(C(=O)N(C3CCCCC3)C3CCCCC3)no2)cc1OC`, the EC50 in test [13] and in [14] was > 50 µM (inactive) in each case.

Turning to `Sc1nnc(NCCc2ccccc2)s1`, the IC50 in [15] was 0.695 µM (active); in test [16], > 99 µM (inactive); in test [17] it was 0.835 µM (active); in test [19], 1.2 µM (active); in test [20], > 100 µM (inactive); in [21], > 99 µM (inactive). In addition, in [18], the EC50 was > 104 µM (inactive).

For `Cc1ccc(NC(=O)c2ccc(CN3CCN(C)CC3)cc2)cc1Nc1nccc(-c2cccnc2)n1` [IMATINIB], the Ki is > 6.31 µM (inactive) in [22]; > 3.98 µM (inactive) in test [23]; > 7.94 µM (inactive) in test [24]; > 10 µM (inactive) in [25]; > 10 µM (inactive) in test [26]; > 1.58 µM (inactive) in [27]. Besides, the results for the Ki in test [28] and in [29] were > 7.94 µM (inactive) and > 1.26 µM (inactive), respectively.

By Ki is commonly meant a dissociation constant, usually derived from enzyme kinetics or from competition with a known ligand. A word on the AC50: it is the concentration at which the activity in the assay is half-maximal.

The record behind these values is ChEMBL document CHEMBL1201862, “PubChem BioAssay data set” (2004).
